The subject of experiment [1] is cholinomimetic effects induced by carbachol. In words: In vivo anticholinergic action: inhibition of carbachol-induced cholinomimetic effects. Details: species or system CD1 male mice. To be noted: i.p.; for ED50 / ED (1 degree C): Mus musculus, ip, 0.5 h, carbachol 1 mg/kg s.c. 30 min later; for ED (1 degree C): rectal temperature, read-out: Body Temperature: dose able to increase by 1° C. the hypothermic effect induced by carbachol; for selective anticholinergic action in vivo: mice, in words. On the procedure: The anticholinergic activity of the compounds was determined by evaluating the capacity to inhibit cholinomimetic effects induced by carbachol. Atropine sulphate was used as reference product.
CD1 male mice are used weighing 25 to 30 g. They are divided into groups of 5 animals and treated by intraperitoneal route, in scaled doses, with the products or with 0.25% of Methocel for the controls. 10 animals are used for each dose. 30 minutes after the administration of the compounds, the mice are subcutaneously injected with 1 mg/kg of carbachol, dissolved in physiological serum.
Each animal was examined 30 minutes after the injection of carbachol to evaluate the presence of diarrhea, salivation and watering of the eyes; the body temperature was also measured using a thermocouple inserted 1.5 cm into the rectum.
For each compound, there was determined, and recorded in the following table, the dose able to inhibit, in 50% of the animals, the appearance of peripheral cholinomimetic symptoms induced by carbachol, and to increase by 1° C. the hypothermic effect induced by the cholinergic agent.

In experiment [2] the test system is contractions induced by acetylcholine, isolated colon. The experiment can be described thus: Antagonism of acetylcholine-induced contractions, isolated colon of rat. Conditions: acetylcholine 3×10^-6 M; contact 3 minutes. On the procedure:
The remarkable antagonist action of the compounds of the invention was confirmed on the isolated colon of rats. In this test it was established whether the antagonist activity was of competitive or non-competitive type.
(§1) The following method was used: segments of the colon of rats of about 2.5 cm are washed and suspended in an insulated bath containing 10 ml of a solution of De Jalon having the following composition: (mM): NaCl 154; KCl 5.7; CaCl2 0.27; NaHCO3 5.9 and glucose 2.5. The temperature of the bath is maintained at 32° C. In these conditions, while maintaining the preparation under a tension of 1 g, the spontaneous activity of the colon is minimal. After a stabilization period of at least 30 minutes, the tension variations are recorded using an isometric transducer connected to a recorder. A series of tests was carried out to evaluate the antagonist activity in relation to the contractions induced by a maximum dose of acetylcholine. (3×10^-6 M).
The compounds are left in contact with the preparation for 3 minutes before adding acetylcholine.
Atropine was used as a reference product. For each compound the dose-response curves are obtained with 4 to 6 different concentrations and 3 to 5 independent tests.

Experiment [3] addresses T1, muscarine receptors, involved in the contractions of the colon (Rattus norvegicus, UniProt P08483).
T1 construct: segments of the colon of rats of about 2.5 cm; from tissue; host or cells: isolated rat colon segments
The experiment can be described thus: Antagonist affinity and type of antagonism (Schild), isolated colon of rat. Conditions: for "Slope" of Schild plot, isolated colon of rat / Kb: cumulative acetylcholine, Schild's method, contact 5 min; for Kb: read-out: pA2, isolated colon of rat (converted); for displacement of the dose-response curve of acetylcholine: isolated colon of rat, in words. On the procedure:
as §1
For each compound the dose-response curves are obtained with 4 to 6 different concentrations and 3 to 5 independent tests.
In a second series of tests the acetylcholine is added to the bath in cumulative doses according to the van Rossum method (J. M. van Rossum, Arch, Int. Pharmacodyn. 143, 299, 1963). Having obtained two equal and consecutive dose-response curves with acetylcholine, a third dose-responsecurve is obtained in the presence of the compound (contact time of compound before acetylcholine=5 min.) Each compound was tested with 3-4 different concentrations
The antagonist affinity and the type of antagonism (competitive, non-competitive) for the muscarine receptors was calculated according to Schild's method (H. D. Schild, Brit. J. Pharmacol. 2, 189, 1947).

Experiment [4] addresses opiated receptor mu (Homo sapiens, UniProt P35372). In words: Affinity for other receptors: opiated receptor mu. The experiment is classed as binding. To be noted: negligible affinity.
Experiment [5] relates to contractions induced by barium chloride, isolated ileum. The experiment can be described thus: Antagonism of barium chloride-induced contractions, isolated guinea-pig ileum. Conditions: barium chloride 2×10^-4 M; contact time one minute; read-out: Antagonism with various agents (IC50): BaCL2. On the procedure:
The interaction of the compounds with various receptors was evaluated on the isolated ileum of a guinea-pig according to the following method.
Segments of the ileum of guinea-pigs of 2.5-3 cm were washed and immediately suspended in a bath containing 10 ml of Tyrode's solution at 37° C. and aerated with a mixture of oxygen (95%) and carbon dioxide (5%). After a stabilization period of at least 30 minutes contractions were recorded, while the preparation was maintained under constant tension of 1 g, by means of a detector connected to a polygraph. The agonistic action was evaluated by leaving the compound in contact with the isolated tissue for a period necessary to show the maximum […]; then it was washed with the Tyrode's solution. The following dose was added only after the preparation had returned to its base line. Arecoline was used as a reference product. The antagonist action was evaluated on the contractions induced by acetylcholine (1×10^-6 M), histamine (1×10^-5 M), serotonine (1×10^-6 M) and barium chloride (2×10^-4 M). […] The contact time before adding the agonist was one minute.
For each compound the does response curves are obtained with 4 to 6 different concentrations and 3 to 5 independent tests. The agonist activity is expressed by pD2 (negative logarithm of the dose which produces 50% of the maximum effect).

In experiment [6] the target is Muscarine receptor 2. The experiment can be described thus: Bonding with cerebral receptors: muscarine receptor 2 (3H quinuclidinyl benzylate, rat brain). Type of experiment: binding. To be noted: 0.3 nM 3H quinuclidinyl benzylate, 60 min, 25° C., pH 7.5; read-out: Affinity for muscarine receptor M2 (/3H/Quinuclidinyl benzylate), IC50. On the procedure: The preparation is made from the brains of a male rat weighing 150 to 200 g (Iffa Credo).
The brains are pulverized (Teflon-glass) in a 0.32M solution of sucrose. The homogenate is centrifuged for 10 minutes at 1000 g (0°-4° C.).
The supernatant obtained is recovered and centrifuged at 30,000 g for 15 minutes (0°-4° C.).
The deposit is put in suspension in a buffer Tris 50 mM pH 7.5 and the new homogenate is centrifuged again at 30,000 g for 15 minutes (0°-4° C.).
The deposits after elimination of the supernatant, can be used straight-away or kept for up to one month at -30° C.
For one experiment the deposits are first of all thawed out, if necessary, to ambient temperature and put in suspension, using a Dounce, in a buffer Tris 50 mM pH 7.5. Aliquots of 2 ml are incubated for 60 minutes at 25° C. in the presence of 0.3 nM of ^3 H quinuclidinyl benzylate either alone, or with the product under test, or with benzatropine at 10^-5 M in order to determine the non-specific radioactivity fixed.
At the end of the incubation the incubate tubes are cooled to 4° C. and filtered rapidly on Whatman GF/C filters. The filters are rinsed with 3×5 ml of buffer Tris 50 mM pH 7.5, then measurements are made by liquid scintillation [Henry I Yamamura, Solomon H. Snyder, Proc. Nat. Acad. Sc. (1974) 71 No. 5, 1725-1729).

Experiment [7] addresses adrenoreceptor beta 2 (Homo sapiens, UniProt P07550). In words: Affinity for other receptors: adrenoreceptor beta 2. The experiment is classed as binding. To be noted: negligible affinity.
For experiment [8], the target named is dopamine receptor. The experiment can be described thus: Affinity for other receptors: dopamine. Type of experiment: binding. Conditions: negligible affinity.
Where [9] appears, read: read-out: dose able to inhibit, in 50% of the animals, Diarrhea.
[10] abbreviates: read-out: dose able to inhibit, in 50% of the animals, Salivation.
Setting [11] is: read-out: dose able to inhibit, in 50% of the animals, Watering of Eyes.

Where two headings read alike, the source gives them in different places.

T1 sequence (P08483 whole entry): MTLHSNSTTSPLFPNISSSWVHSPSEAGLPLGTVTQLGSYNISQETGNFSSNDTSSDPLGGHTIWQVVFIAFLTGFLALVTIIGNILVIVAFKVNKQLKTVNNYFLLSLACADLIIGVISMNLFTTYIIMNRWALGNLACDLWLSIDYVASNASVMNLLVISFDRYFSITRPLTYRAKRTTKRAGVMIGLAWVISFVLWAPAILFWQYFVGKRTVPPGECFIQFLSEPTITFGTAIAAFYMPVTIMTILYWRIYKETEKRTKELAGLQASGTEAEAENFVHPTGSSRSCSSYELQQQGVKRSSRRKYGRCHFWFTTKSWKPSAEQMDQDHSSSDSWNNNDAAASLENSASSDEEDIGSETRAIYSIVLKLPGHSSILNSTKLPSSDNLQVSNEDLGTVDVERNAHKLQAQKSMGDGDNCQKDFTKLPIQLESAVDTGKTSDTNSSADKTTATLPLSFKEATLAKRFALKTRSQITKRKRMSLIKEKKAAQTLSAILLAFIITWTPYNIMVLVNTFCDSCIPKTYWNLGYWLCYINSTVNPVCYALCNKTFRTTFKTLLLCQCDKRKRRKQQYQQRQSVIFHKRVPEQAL
Sequence of adrenoreceptor beta 2 (P07550 whole entry): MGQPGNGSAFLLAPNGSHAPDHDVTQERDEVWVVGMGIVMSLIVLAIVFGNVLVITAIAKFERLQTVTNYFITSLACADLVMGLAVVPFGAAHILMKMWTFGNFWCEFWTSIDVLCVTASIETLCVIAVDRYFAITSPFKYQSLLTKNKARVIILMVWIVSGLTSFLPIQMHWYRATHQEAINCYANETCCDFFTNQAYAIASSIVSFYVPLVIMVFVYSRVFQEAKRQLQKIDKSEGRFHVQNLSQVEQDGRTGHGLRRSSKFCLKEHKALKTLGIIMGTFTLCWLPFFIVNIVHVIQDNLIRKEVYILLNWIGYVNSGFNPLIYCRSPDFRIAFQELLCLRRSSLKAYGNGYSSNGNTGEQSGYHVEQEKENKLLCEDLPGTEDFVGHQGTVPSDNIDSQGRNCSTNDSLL
Sequence of opiated receptor mu (P35372 whole entry): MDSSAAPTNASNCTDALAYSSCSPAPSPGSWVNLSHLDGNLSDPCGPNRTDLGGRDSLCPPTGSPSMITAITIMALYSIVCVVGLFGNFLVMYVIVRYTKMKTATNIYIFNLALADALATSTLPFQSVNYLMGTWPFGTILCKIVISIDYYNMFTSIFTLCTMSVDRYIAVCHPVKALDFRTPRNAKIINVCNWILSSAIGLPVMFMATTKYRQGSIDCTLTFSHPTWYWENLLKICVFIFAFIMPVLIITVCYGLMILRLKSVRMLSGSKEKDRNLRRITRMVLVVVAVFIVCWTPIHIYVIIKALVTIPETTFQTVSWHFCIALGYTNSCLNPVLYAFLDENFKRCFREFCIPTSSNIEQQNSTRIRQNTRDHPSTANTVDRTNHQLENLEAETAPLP

Consider `CCN(CC)c1ccc(S(=O)(=O)N2CCCC2=O)cc1` [Example 2, 1-[4-(diethylamino)benzenesulphonyl]-2-pyrrolidinone], for which the ED50 in experiment [1] (setting [9]) is 7 mg/kg; in experiment [1] (setting [10]), > 50 mg/kg; in experiment [1] (setting [11]) it was > 50 mg/kg. Further, in experiment [1], the ED (1 degree C) is > 50 mg/kg. The “selective anticholinergic action in vivo” value in experiment [1] is listed as “selective anticholinergic action on the intestinal musculature”. For the same compound, the IC50 was 0.16 µM in experiment [2]; 5 to 10 µM in experiment [4]; 6 µM in experiment [5]; 1.3 µM in experiment [6]; 5 to 10 µM in experiment [7]; 5 to 10 µM in experiment [8]. Besides, in experiment [3], the “"Slope" of Schild plot, isolated colon of rat” value was found to be 1.08. For the same compound, the Kb in experiment [3] is 0.0447 µM. Further, the “displacement of the dose-response curve of acetylcholine” value in experiment [3] is “parallel displacement towards the right of the dose-response curve of acetyl-choline without reducing the maximum contraction”.
Regarding `CC(C)(C)c1ccc(S(=O)(=O)N2CCCC2=O)cc1` [Example 1, 1-(4-tert-butylbenzenesulphonyl)-2-pyrrolidinone], the results for the ED50 in experiment [1] (setting [9]), in experiment [1] (setting [10]) and in experiment [1] (setting [11]) were 7 mg/kg, 10 mg/kg and > 50 mg/kg, respectively. In addition, the ED (1 degree C) in experiment [1] is 50 mg/kg. Besides, in experiment [1], the “selective anticholinergic action in vivo” value is “selective anticholinergic action on the intestinal musculature”. Moreover, the IC50 in experiment [2] is 0.28 µM; in experiment [4], 5 to 10 µM; in experiment [5], 16 µM; in experiment [6], 1.3 µM; in experiment [7] it was 5 to 10 µM; in experiment [8] it was 5 to 10 µM. Moreover, the “"Slope" of Schild plot, isolated colon of rat” value in experiment [3] came out at 0.89. In addition, the Kb in experiment [3] was 0.017 µM. Further, in experiment [3], the “displacement of the dose-response curve of acetylcholine” value was “parallel displacement towards the right of the dose-response curve of acetyl-choline without reducing the maximum contraction”.

(Values after patent US4990531A, “Derivatives of 1-arylsulphonyl-2-pyrrolidinone and their use as medicaments” (Roussel Uclaf, priority 1988, dated 1991).)
